The term IC50 denotes the midpoint of a concentration-inhibition curve.

Results on 26 compounds are retold here after patent US8735384B2, “Amino heteroaryl compounds as beta-secretase modulators and methods of use” (Amgen Inc., priority 2010, dated 2014).

The subject of assay [1] is Aβ40 in conditioned medium of cells stably expressing Amyloid Precursor Protein (APP). Kind of assay: In vitro BACE cell-based assay (HEK cell assay), Aβ40 sandwich ELISA. The settings on record: inhibition of Aβ40, 24 h incubation, read-out: HEK cell assay (IC50 class). Here is the method:
In Vitro BACE Cell-Based Assay:
The cell-based assay measures inhibition or reduction of Aβ40 in conditioned medium of test compound treated cells expressing amyloid precursor protein.
Cells stably expressing Amyloid Precursor Protein (APP) were plated at a density of 40K cells/well in 96 well plates (Costar). The cells were cultivated for 24 hours at 37° C. and 5% CO2 in DMEM supplemented with 10% FBS. The test compounds were then added to cells in 10-point dose response concentrations with the starting concentration being either 100 μM or 10 μM. The compounds were diluted from stock solutions in DMSO and the final DMSO concentration of the test compounds on cells was 0.1%. After 24 h of incubation with the test compounds the supernatant conditioned media was collected and the Aβ 40 levels were determined using a sandwich ELISA. The IC50 of the compound was calculated from the percent of control or percent inhibition of Aβ 40 as a function of the concentration of the test compound.
The sandwich ELISA to detect Aβ 40 was performed in 96 well microtiter plates, which were pre-treated with goat anti-rabbit IgG (Pierce). The capture and detecting antibody pair that were used to detect Aβ 40 from cell supernatants were affinity purified pAb40 (Biosource) and biotinylated 6E10 (Signet Labs Inc.), respectively. The optimal concentration for the pAb40 antibody was 3 μg/ml in Superblock/TBS (Pierce) that was supplemented with 0.05% Tween 20 (Sigma). Optimal concentration for the detection antibody 6E10-biotinylated was 0.5 μg/ml in Superblock/TBS (Pierce) that had been supplemented with 2% normal goat serum and 2% normal mouse serum.
Cellular supernatants were incubated with the capture antibody for 3 h at 4° C., followed by 3 wash steps in TBS-tween (0.05%). The detecting antibody incubation was for 2 h at 4° C., again followed by the wash steps as described previously. The final readout of the ELISA is Time-Resolved Fluorescence (counts per minute) using Delfia reagents Streptavidin-Europium and Enhancement solutions (Perkin Elmer) and the Victor 2 multilabel counter (Perkin Elmer).

A further assay concerns the target BACE1 (Homo sapiens, UniProt P56817). Description: In vitro enzymatic BACE FRET assay. It is filed as biochemical. The note with it: beta secretase enzyme 0.2 nM, FRET substrate 50 nM, pH 4.2; read-out: BACE1 FRET assay (IC50 class). On the procedure:
In Vitro Enzymatic BACE FRET (Fluorescence Resonance Energy Transfer) Assay (Enzyme Assay Data in Table 1)
The assay buffer used in this screen is 0.05 M acetate, pH 4.2, 10% DMSO final, 100 uM genapol (which is a nonionic detergent, below its Critical Micelle Concentration). The beta secretase enzyme (0.2 nM) is pre-incubated for one hour with inhibitors, typically in about 1 uL of DMSO according to a serial dilution, are added thereto. The assay is effectively started by the addition of FRET substrate (50 nM) and the combination is incubated for one hour. The FRET assay is terminated with by addition of Tris buffer, which raises the pH to neutrality, and the fluorescence is determined. The FRET substrate is a peptide with commercially available fluorophore and quencher, on opposite sides of the BACE cleavage site. Proteolytic cleavage of the FRET substrate releases quenching of fluorescence (excitation […] and […]).
Of the compounds tested, the in-vitro BACE FRET enzyme data for each of Examples 1-220, where available at the time of filing this application, is provided in Table 1.

Where two headings read alike, the source gives them in different places.

Sequence of BACE1 (P56817 46-501, species assumed): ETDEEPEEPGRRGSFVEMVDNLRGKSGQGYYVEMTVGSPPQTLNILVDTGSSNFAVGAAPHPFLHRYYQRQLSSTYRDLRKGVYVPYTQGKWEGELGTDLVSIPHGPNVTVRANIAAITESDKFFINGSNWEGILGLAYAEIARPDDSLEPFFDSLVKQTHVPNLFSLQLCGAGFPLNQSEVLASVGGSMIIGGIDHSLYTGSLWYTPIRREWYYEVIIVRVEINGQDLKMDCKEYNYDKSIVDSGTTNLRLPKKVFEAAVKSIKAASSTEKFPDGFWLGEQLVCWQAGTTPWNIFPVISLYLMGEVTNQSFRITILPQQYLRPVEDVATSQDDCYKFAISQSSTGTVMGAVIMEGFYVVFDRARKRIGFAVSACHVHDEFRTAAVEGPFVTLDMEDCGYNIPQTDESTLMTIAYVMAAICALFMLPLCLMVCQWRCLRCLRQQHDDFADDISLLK

For the compound “2-(2-amino-3-(2,6-dimethylmorpholino)quinolin-6-yl)-N-ethyl-3-methyl-N-propylbenzamide [Example 216]”, the results for the IC50 (in assay [1]; at BACE1) were 1010 to 5000 nM and less than 100 nM, respectively.

Consider `Cc1cccc(C(=NO)c2ccccc2)c1-c1ccc2nc(N)c(N3CCOCC3)cc2c1` (stereo in doubt) [Example 16, (Z)-(2-(2-amino-3-morpholinoquinolin-6-yl)-3-methylphenyl)(phenyl)methanone oxime], for which the figures for the IC50 (in assay [1]; on BACE1) were 501 to 1000 nM and less than 100 nM, respectively.

For `Cc1cccc(C(=O)N2CCCC2)c1-c1ccc2nc(N)c(N3CCOCC3)cc2c1` [Example 1, (2-(2-amino-3-morpholinoquinolin-6-yl)-3-methylphenyl)(pyrrolidin-1-yl)methanone], the IC50 was 100 to 500 nM in assay [1] (Homo sapiens, HEK293, 24 h) and less than 100 nM at BACE1.

`Cc1cccc(C(=O)c2ccccc2)c1-c1ccc2nc(N)c(N3CCOCC3)cc2c1` [Example 2, (2-(2-amino-3-morpholinoquinolin-6-yl)-3-methylphenyl)(phenyl)methanone]: the IC50 in assay [1] (Homo sapiens, HEK293, 24 h) was 1010 to 5000 nM; at BACE1 it was less than 100 nM.

As to `Cc1ccccc1C(=O)c1cccc(C)c1-c1ccc2nc(N)c(N3CCOCC3)cc2c1` [Example 3, (2-(2-amino-3-morpholinoquinolin-6-yl)-3-methylphenyl)(o-tolyl)methanone], the IC50 in assay [1] (Homo sapiens, HEK293, 24 h) is 501 to 1000 nM; on BACE1 it was less than 100 nM.

Consider `Cc1cccc(C2=NCCc3ccccc32)c1-c1ccc2nc(N)c(N3CCOCC3)cc2c1` [Example 4, 6-(2-(3,4-dihydroisoquinolin-1-yl)-6-methylphenyl)-3-morpholinoquinolin-2-amine], for which the IC50 in assay [1] (Homo sapiens, HEK293, 24 h) lay in the range of 501 to 1000 nM; on BACE1, 100 to 500 nM.

Turning to `Cc1cccc(C(=O)C2CCCO2)c1-c1ccc2nc(N)c(N3CCOCC3)cc2c1` (stereo not shown) [Example 5, (2-(2-amino-3-morpholinoquinolin-6-yl)-3-methylphenyl)(tetrahydrofuran-2-yl)methanone], the IC50 lay within 501 to 1000 nM in assay [1] (Homo sapiens, HEK293, 24 h) and 100 to 500 nM at BACE1.

For the compound `COc1ccccc1C(=N)c1cccc(C)c1-c1ccc2nc(N)c(N3CCOCC3)cc2c1` [Example 6, 6-(2-(imino(2-methoxyphenyl)methyl)-6-methylphenyl)-3-morpholinoquinolin-2-amine], the concentration for half-maximal inhibition (IC50) was less than 100 nM in assay [1] (Homo sapiens, HEK293, 24 h) and less than 100 nM at BACE1.

For the compound `COc1ccccc1C(=O)c1cccc(C)c1-c1ccc2nc(N)c(N3CCOCC3)cc2c1` [Example 7, (2-(2-amino-3-morpholinoquinolin-6-yl)-3-methylphenyl)(2-methoxyphenyl)methanone], the IC50 in assay [1] (Homo sapiens, HEK293, 24 h) is 100 to 500 nM; on BACE1 it was less than 100 nM.

In the case of `Cc1cccc(C(c2ccccc2)n2ccnc2)c1-c1ccc2nc(N)c(N3CCOCC3)cc2c1` (stereo not shown) [Example 8, 6-(2-((1H-imidazol-1-yl)(phenyl)methyl)-6-methylphenyl)-3-morpholinoquinolin-2-amine], the IC50 is 1010 to 5000 nM in assay [1] (Homo sapiens, HEK293, 24 h) and 1010 to 5000 nM at BACE1.

For the compound `Cc1cccc(C(c2ccccc2)N2CCCC2)c1-c1ccc2nc(N)c(N3CCOCC3)cc2c1` (stereo not shown) [Example 9, 6-(2-methyl-6-(phenyl(pyrrolidin-1-yl)methyl)phenyl)-3-morpholinoquinolin-2-amine], the IC50 in assay [1] (Homo sapiens, HEK293, 24 h) was 100 to 500 nM; at BACE1 it was 501 to 1000 nM.

With `Cc1cccc(C2NCCc3ccccc32)c1-c1ccc2nc(N)c(N3CCOCC3)cc2c1` (stereo not shown) [Example 10, 6-(2-methyl-6-(1,2,3,4-tetrahydroisoquinolin-1-yl)phenyl)-3-morpholinoquinolin-2-amine], the IC50 in assay [1] (Homo sapiens, HEK293, 24 h) was in the range of 100 to 500 nM; on BACE1 it was 1010 to 5000 nM.

For `Nc1nc2ccc(-c3ccccc3C(=O)C3CCOCC3)cc2cc1N1CCOCC1` [Example 11, (2-(2-amino-3-morpholinoquinolin-6-yl)phenyl)(tetrahydro-2H-pyran-4-yl)methanone], the IC50 in assay [1] (Homo sapiens, HEK293, 24 h) fell in the range of 1010 to 5000 nM; on BACE1 it was 100 to 500 nM.

As for `Nc1nc2ccc(-c3ccccc3C(O)C3CCOCC3)cc2cc1N1CCOCC1` (stereo not shown) [Example 12, (2-(2-amino-3-morpholinoquinolin-6-yl)phenyl)(tetrahydro-2H-pyran-4-yl)methanol], the IC50 in assay [1] (Homo sapiens, HEK293, 24 h) is greater than 5000 nM; at BACE1, 1010 to 5000 nM.

On to `Nc1nc2ccc(-c3ccccc3CC3CCOCC3)cc2cc1N1CCOCC1` [Example 13, 3-morpholino-6-(2-((tetrahydro-2H-pyran-4-yl)methyl)phenyl)quinolin-2-amine], for which the IC50 in assay [1] (Homo sapiens, HEK293, 24 h) lay in the range of 1010 to 5000 nM; on BACE1, 100 to 500 nM.

In the case of `CCCC(=N)c1cccc(C)c1-c1ccc2nc(N)c(N3CCOCC3)cc2c1` [Example 14, 6-(2-(1-iminobutyl)-6-methylphenyl)-3-morpholinoquinolin-2-amine], the IC50 was greater than 5000 nM in assay [1] (Homo sapiens, HEK293, 24 h) and 100 to 500 nM on BACE1.

For the compound `CO/N=C(\c1ccccc1)c1cccc(C)c1-c1ccc2nc(N)c(N3CCOCC3)cc2c1` [Example 15, (E)-(2-(2-amino-3-morpholinoquinolin-6-yl)-3-methylphenyl)(phenyl)methanone O-methyl oxime], the IC50 in assay [1] (Homo sapiens, HEK293, 24 h) was 501 to 1000 nM; at BACE1 it was less than 100 nM.

As to `Cc1cccc(C(N)c2ccccc2)c1-c1ccc2nc(N)c(N3CCOCC3)cc2c1` (stereo not shown) [Example 17, 6-(2-(amino(phenyl)methyl)-6-methylphenyl)-3-morpholinoquinolin-2-amine], the IC50 in assay [1] (Homo sapiens, HEK293, 24 h) was less than 100 nM; on BACE1, less than 100 nM.

As for `Cc1cccc(Cc2ccccc2)c1-c1ccc2nc(N)c(N3CCOCC3)cc2c1` [Example 18, 6-(2-benzyl-6-methylphenyl)-3-morpholinoquinolin-2-amine], the IC50 in assay [1] (Homo sapiens, HEK293, 24 h) was 1010 to 5000 nM; at BACE1, less than 100 nM.

Consider `Cc1cccc(C(=O)OC2CCCC2)c1-c1ccc2nc(N)c(N3CCOCC3)cc2c1` [Example 19, cyclopentyl 2-(2-amino-3-morpholinoquinolin-6-yl)-3-methylbenzoate], for which the IC50 in assay [1] (Homo sapiens, HEK293, 24 h) is 100 to 500 nM; on BACE1, less than 100 nM.

On to `Cc1cccc(C(=O)N2CCCC2)c1-c1ccc2nc(N)c(N3CCOC[C@H]3C)cc2c1` [Example 20, (R)-(2-(2-amino-3-(3-methylmorpholino)quinolin-6-yl)-3-methylphenyl)(pyrrolidin-1-yl)methanone], for which the IC50 is 501 to 1000 nM in assay [1] (Homo sapiens, HEK293, 24 h) and less than 100 nM at BACE1.

In the case of `CCC1CN(c2cc3cc(-c4c(C)cccc4C(=O)N4CCCC4)ccc3nc2N)CCO1` (stereo not shown) [Example 21, (2-(2-amino-3-(2-ethylmorpholino)quinolin-6-yl)-3-methylphenyl)(pyrrolidin-1-yl)methanone], the IC50 is 1010 to 5000 nM in assay [1] (Homo sapiens, HEK293, 24 h) and less than 100 nM at BACE1.

`Cc1cccc(-c2nnc3ccccn23)c1-c1ccc2nc(N)c(N3CCOCC3)cc2c1` [Example 22, 6-(2-([1,2,4]triazolo[4,3-a]pyridin-3-yl)-6-methylphenyl)-3-morpholinoquinolin-2-amine]: the IC50 lay in the range of 501 to 1000 nM in assay [1] (Homo sapiens, HEK293, 24 h) and 100 to 500 nM on BACE1.

As to `Cc1cccc(C(=O)c2ccncn2)c1-c1ccc2nc(N)c(N3CCOCC3)cc2c1` [Example 23, (2-(2-amino-3-morpholinoquinolin-6-yl)-3-methylphenyl)(pyrimidin-4-yl)methanone], the IC50 in assay [1] (Homo sapiens, HEK293, 24 h) was greater than 5000 nM; at BACE1 it was 100 to 500 nM.

Turning to `Cc1cccc(-c2cccc(C(F)(F)F)c2)c1-c1ccc2nc(N)c(N3CCOCC3)cc2c1` [Example 25, 6-(3-methyl-3′-(trifluoromethyl)biphenyl-2-yl)-3-morpholinoquinolin-2-amine], the IC50 was greater than 5000 nM in assay [1] (Homo sapiens, HEK293, 24 h) and less than 100 nM at BACE1.

On to `Cc1cccc(C(=O)n2ccc3ccccc32)c1-c1ccc2nc(N)c(N3CCOCC3)cc2c1` [Example 26, (2-(2-amino-3-morpholinoquinolin-6-yl)-3-methylphenyl)(1H-indol-1-yl)methanone], for which the IC50 in assay [1] (Homo sapiens, HEK293, 24 h) is greater than 5000 nM; at BACE1 it was 100 to 500 nM.
